Measurements taken from US12037340B2, “Pentacyclic derivatives as Zika virus inhibitors” (Gilead Sciences, Inc., priority 2021, dated 2024).

What follows are compounds tested on ZIKV (assay: microbe, parasite or virus in culture). Conditions: 48 hrs.
Type: cell-based, Zika virus
COC(=O)N[C@H](C(=O)N1[C@H](c2nc(Cl)c(-c3ccc4c(c3)COc3cc5c(ccc6nc([C@@H]7C[C@@H]8CCC[C@@H]8N7C(=O)[C@@H](NC(=O)OC)C(C)C)[nH]c65)cc3-4)[nH]2)C[C@@H]2CCC[C@@H]21)C(C)C [Compound 34, methyl ((S)-1-((2S,3aS,6aS)-2-(4-chloro-5-(2-((2S,3aS,6aS)-1-((methoxycarbonyl)-L-valyl)octahydrocyclopenta[b]pyrrol-2-yl)-1,11-dihydroisochromeno[4′,3′:6,7]naphtho[1,2-d]imidazol-9-yl)-1H-imidazol-2-yl)hexahydrocyclopenta[b]pyrrol-l(2H)-yl)-3-methyl-1-oxobutan-2-yl)carbamate] showed an EC50 of 30.6 nM.
Compound CC[C@H](C)[C@H](NC(=O)OC)C(=O)N1[C@H](c2nc(Cl)c(-c3ccc4c(c3)COc3cc5c(ccc6nc([C@@H]7C[C@@H]8CCC[C@@H]8N7C(=O)[C@@H](NC(=O)OC)[C@@H](C)CC)[nH]c65)cc3-4)[nH]2)C[C@@H]2CCC[C@@H]21 [Compound 35, methyl ((2S,3S)-1-((2S,3aS,6aS)-2-(4-chloro-5-(2-((2S,3aS,6aS)-1-((methoxycarbonyl)-L-isoleucyl)octahydrocyclopenta[b]pyrrol-2-yl)-1,11-dihydroisochromeno[4′,3′:6,7]naphtho[1,2-d]imidazol-9-yl)-1H-imidazol-2-yl)hexahydrocyclopenta[b]pyrrol-l(2H)-yl)-3-methyl-1-oxopentan-2-yl)carbamate] has an EC50 of 20.9 nM.
COC(=O)N[C@H](C(=O)N1[C@H](c2nc(Cl)c(-c3ccc4c(c3)COc3cc5c(ccc6nc([C@@H]7C[C@@H]8CCC[C@@H]8N7C(=O)[C@@H](NC(=O)OC)C7C[C@@H](C)O[C@H](C)C7)[nH]c65)cc3-4)[nH]2)C[C@@H]2CCC[C@@H]21)C1C[C@@H](C)O[C@H](C)C1 (stereo partly drawn) [Compound 36, methyl ((S)-2-((2S,3aS,6aS)-2-(4-chloro-5-(2-((2S,3aS,6aS)-1-((S)-2-((2R,6R)-2,6-dimethyltetrahydro-2H-pyran-4-yl)-2-((methoxycarbonyl)amino)acetyl)octahydrocyclopenta[b]pyrrol-2-yl)-1,11-dihydroisochromeno[4′,3′:6,7]naphtho[1,2-d]imidazol-9-yl)-1H-imidazol-2-yl)hexahydrocyclopenta[b]pyrrol-l(2H)-yl)-1-((2R,6R)-2,6-dimethyltetrahydro-2H-pyran-4-yl)-2-oxoethyl)carbamate] gave an EC50 of 46.9 nM.
With COC(=O)N[C@H](C(=O)N1[C@H](c2nc(Cl)c(-c3ccc4c(c3)COc3cc5ccc6[nH]c([C@@H]7C[C@@H]8CCC[C@@H]8N7C(=O)[C@@H](NC(=O)OC)C(C)(C)C(F)(F)F)nc6c5cc3-4)[nH]2)C[C@@H]2CCC[C@@H]21)C(C)(C)C(F)(F)F [Compound 37, methyl ((S)-1-((2S,3aS,6aS)-2-(4-chloro-5-(2-((2S,3aS,6aS)-1-((S)-4,4,4-trifluoro-2-((methoxycarbonyl)amino)-3,3-dimethylbutanoyl)octahydrocyclopenta[b]pyrrol-2-yl)-1,11-dihydroisochromeno[4′,3′:6,7]naphtho[1,2-d]imidazol-9-yl)-1H-imidazol-2-yl)hexahydrocyclopenta[b]pyrrol-l(2H)-yl)-4,4,4-trilluoro-3,3-dimethyl-1-oxobutan-2-yl)carbamate] the EC50 was 13.3 nM.
In the case of COC(=O)N[C@H](C(=O)N1[C@@H](C)CC[C@H]1c1nc(C2CC2)c(-c2ccc3c(c2)COc2cc4c(ccc5nc([C@@H]6CC[C@H](C)N6C(=O)[C@@H](NC(=O)OC)C(C)(C)C(F)(F)F)[nH]c54)cc2-3)[nH]1)C(C)(C)C(F)(F)F [Compound 41, methyl ((S)-1-((2S,5S)-2-(4-cyclopropyl-5-(2-((2S,5S)-5-methyl-1-((S)-4,4,4-trifluoro-2-((methoxycarbonyl)amino)-3,3-dimethylbutanoyl)pyrrolidin-2-yl)-1,11-dihydroisochromeno[4′,3′:6,7]naphtho[1,2-d]imidazol-9-yl)-1H-imidazol-2-yl)-5-methylpyrrolidin-1-yl)-4,4,4-trilluoro-3,3-dimethyl-1-oxobutan-2-yl)carbamate], the EC50 is reported as 4.8 nM.

Same assay, conditions: Zika virus, Huh-7; 48 hrs
In the case of COC(=O)N[C@H](C(=O)N1[C@@H](C)CC[C@H]1c1nc(Cl)c(-c2ccc3c(c2)COc2cc4c(ccc5nc([C@@H]6CC[C@H](C)N6C(=O)[C@@H](NC(=O)OC)C(C)(C)CF)[nH]c54)cc2-3)[nH]1)C(C)(C)CF [Compound 32, methyl ((S)-1-((2S,5S)-2-(4-chloro-5-(2-((2S,5S)-1-((S)-4-fluoro-2-((methoxycarbonyl)amino)-3,3-dimethylbutanoyl)-5-methylpyrrolidin-2-yl)-1,11-dihydroisochromeno[4′,3′:6,7]naphtho[1,2-d]imidazol-9-yl)-1H-imidazol-2-yl)-5-methylpyrrolidin-1-yl)-4-fluoro-3,3-dimethyl-1-oxobutan-2-yl)carbamate], the EC50 is reported as 5.9 nM.
For COC(=O)N[C@H](C(=O)N1[C@@H](C)CC[C@H]1c1nc(F)c(-c2ccc3c(c2)COc2cc4c(ccc5nc([C@@H]6CC[C@H](C)N6C(=O)[C@@H](NC(=O)OC)C(C)C)[nH]c54)cc2-3)[nH]1)C(C)C [Compound 33, methyl ((S)-1-((2S,5S)-2-(9-(4-fluoro-2-((2S,5S)-1-((methoxycarbonyl)-L-valyl)-5-methylpyrrolidin-2-yl)-1H-imidazol-5-yl)-1,11-dihydroisochromeno[4′,3′:6,7]naphtho[1,2-d]imidazol-2-yl)-5-methylpyrrolidin-1-yl)-3-methyl-1-oxobutan-2-yl)carbamate], the EC50 was 77.3 nM.
COC(=O)N[C@H](C(=O)N1[C@@H](C)CC[C@H]1c1nc(C2CC2)c(-c2ccc3c(c2)COc2cc4c(ccc5nc([C@@H]6CC[C@H](C)N6C(=O)[C@@H](NC(=O)OC)C(C)C)[nH]c54)cc2-3)[nH]1)C(C)C [Compound 38, methyl ((S)-1-((2S,5S)-2-(4-cyclopropyl-5-(2-((2S,5S)-1-((methoxycarbonyl)-L-valyl)-5-methylpyrrolidin-2-yl)-1,11-dihydroisochromeno[4′,3′:6,7]naphtho[1,2-d]imidazol-9-yl)-1H-imidazol-2-yl)-5-methylpyrrolidin-1-yl)-3-methyl-1-oxobutan-2-yl)carbamate] showed an EC50 of 25.9 nM.
CC[C@H](C)[C@H](NC(=O)OC)C(=O)N1[C@@H](C)CC[C@H]1c1nc(C2CC2)c(-c2ccc3c(c2)COc2cc4c(ccc5nc([C@@H]6CC[C@H](C)N6C(=O)[C@@H](NC(=O)OC)[C@@H](C)CC)[nH]c54)cc2-3)[nH]1 [Compound 39, methyl ((2S,3S)-1-((2S,5S)-2-(4-cyclopropyl-5-(2-((2S,5S)-1-((methoxycarbonyl)-L-isoleucyl)-5-methylpyrrolidin-2-yl)-1,11-dihydroisochromeno[4′,3′:6,7]naphtho[1,2-d]imidazol-9-yl)-1H-imidazol-2-yl)-5-methylpyrrolidin-1-yl)-3-methyl-1-oxopentan-2-yl)carbamate] showed an EC50 of 17.2 nM.
CC[C@@H](C)[C@H](NC(=O)OC)C(=O)N1[C@@H](C)CC[C@H]1c1nc(C2CC2)c(-c2ccc3c(c2)COc2cc4c(ccc5nc([C@@H]6CC[C@H](C)N6C(=O)[C@@H](NC(=O)OC)[C@H](C)CC)[nH]c54)cc2-3)[nH]1 [Compound 40, methyl ((2S,3R)-1-((2S,5S)-2-(4-cyclopropyl-5-(2-((2S,5S)-1-((methoxycarbonyl)-L-alloisoleucyl)-5-methylpyrrolidin-2-yl)-1,11-dihydroisochromeno[4′,3′:6,7]naphtho[1,2-d]imidazol-9-yl)-1H-imidazol-2-yl)-5-methylpyrrolidin-1-yl)-3-methyl-1-oxopentan-2-yl)carbamate] showed an EC50 of 25.1 nM.
COC(=O)N[C@H](C(=O)N1[C@@H](C)CC[C@H]1c1nc(C2CC2)c(-c2ccc3c(c2)COc2cc4c(ccc5nc([C@@H]6CC[C@H](C)N6C(=O)[C@@H](NC(=O)OC)C(C)(C)CF)[nH]c54)cc2-3)[nH]1)C(C)(C)CF [Compound 42, methyl ((S)-1-((2S,5S)-2-(4-cyclopropyl-5-(2-((2S,5S)-1-((S)-4-fluoro-2-((methoxycarbonyl)amino)-3,3-dimethylbutanoyl)-5-methylpyrrolidin-2-yl)-1,11-dihydroisochromeno[4′,3′:6,7]naphtho[1,2-d]imidazol-9-yl)-1H-imidazol-2-yl)-5-methylpyrrolidin-1-yl)-4-fluoro-3,3-dimethyl-1-oxobutan-2-yl)carbamate] gave an EC50 of 21.4 nM.
COC(=O)N[C@H](C(=O)N1[C@@H](C)CC[C@H]1c1nc(C(C)C)c(-c2ccc3c(c2)COc2cc4c(ccc5nc([C@@H]6CC[C@H](C)N6C(=O)[C@@H](NC(=O)OC)C(C)C)[nH]c54)cc2-3)[nH]1)C(C)C [Compound 43, methyl ((S)-1-((2S,5S)-2-(4-isopropyl-5-(2-((2S,5S)-1-((methoxycarbonyl)-L-valyl)-5-methylpyrrolidin-2-yl)-1,11-dihydroisochromeno[4′,3′:6,7]naphtho[1,2-d]imidazol-9-yl)-1H-imidazol-2-yl)-5-methylpyrrolidin-1-yl)-3-methyl-1-oxobutan-2-yl)carbamate] gave an EC50 of 57.7 nM.
Compound CC[C@H](C)[C@H](NC(=O)OC)C(=O)N1[C@@H](C)CC[C@H]1c1nc(C(C)C)c(-c2ccc3c(c2)COc2cc4c(ccc5nc([C@@H]6CC[C@H](C)N6C(=O)[C@@H](NC(=O)OC)[C@@H](C)CC)[nH]c54)cc2-3)[nH]1 [Compound 44, methyl ((2S,3S)-1-((2S,5S)-2-(4-isopropyl-5-(2-((2S,5S)-1-((methoxycarbonyl)-L-isoleucyl)-5-methylpyrrolidin-2-yl)-1,11-dihydroisochromeno[4′,3′:6,7]naphtho[1,2-d]imidazol-9-yl)-1H-imidazol-2-yl)-5-methylpyrrolidin-1-yl)-3-methyl-1-oxopentan-2-yl)carbamate] has an EC50 of 11.5 nM.
With COC(=O)N[C@H](C(=O)N1[C@@H](C)CC[C@H]1c1nc(C(C)C)c(-c2ccc3c(c2)COc2cc4c(ccc5nc([C@@H]6CC[C@H](C)N6C(=O)[C@@H](NC(=O)OC)C(C)(C)C(F)(F)F)[nH]c54)cc2-3)[nH]1)C(C)(C)C(F)(F)F [Compound 45, methyl ((S)-4,4,4-trifluoro-1-((2S,5S)-2-(4-isopropyl-5-(2-((2S,5S)-5-methyl-1-((S)-4,4,4-trifluoro-2-((methoxycarbonyl)amino)-3,3-dimethylbutanoyl)pyrrolidin-2-yl)-1,11-dihydroisochromeno[4′,3′:6,7]naphtho[1,2-d]imidazol-9-yl)-1H-imidazol-2-yl)-5-methylpyrrolidin-1-yl)-3,3-dimethyl-1-oxobutan-2-yl)carbamate] the EC50 was 4.9 nM.
